Among the data in US20100305113A1, “Substituted Imidazopyridazines as Lipid Kinase Inhibitors” (priority 2007, published 2010) are IC50 values, retold here.

Common to all, as to format: biochemical
Common to all, as to details: Enzymatic Data

One assay has as its target T1, PI3K beta (Homo sapiens, UniProt P42338).
T1 construct: for the full-length p110-b subunit are generated and fused by overlapping PCR; p85(iSH2) fusion partner (same polypeptide; see partner chain) (N); Gly linker (N); His tag (C); made in house; host or cells: baculovirus; Tn5 (Trichoplusia ni) or TiniPro insect cells
Nature of the assay: PI3K beta enzymatic assay (Kinase-Glo luminescence). The procedure: (§1) In a more preferred assay, the kinase reaction is performed in a final volume of 10 μL per well of a low volume non binding CORNING, 384 well black plate (Cat. No. #3676). The final concentrations of ATP and phosphatidyl inositol (PI) in the assay are 1 μM and 10 μg/mL respectively. The reaction is started by the addition of ATP.
(§2) The components of the assay are added per well as follows:
(§3) 50 nL test compounds in 90% DMSO per well, in columns 1-20, 8 concentrations (⅓ and 1/3.33 serial dilution step) in single. • Low control: 50 nL of 90% DMSO in half the wells of columns 23-24 (0.45% in final). • High control: 50 nL of reference compound (e.g. compound of Example 7 in WO 2006/122806, incorporated by reference herein that regard) in the other half of columns 23-24 (2.5 μM in final). • Standard: 50 nL of reference compound as just mentioned diluted as the test compounds in columns 21-22 • 20 mL ‘buffer’ are prepared per assay: • 200 μL of 1M TRIS HCl pH7.5 (10 mM in final) • 60 μL of 1M MgCl2 (3 mM in final) • 500 μL of 2M NaCl (50 mM in final) • 100 μL of 10% CHAPS (0.05% in final) • 200 μL of 100 mM DTT (1 mM in final) • 18.94 mL of nanopure water • 10 mL ‘PI’ are prepared per assay: • 200 μL of 1 mg/ml L-alpha-Phosphatidylinositol (Liver Bovine, Avanti Polar Lipids Cat. No. 840042C MW=909.12) prepared in 3% OctylGlucoside ([…]) • 9.8 mL of ‘buffer’ • 10 mL ‘ATP’ are prepared per assay: • 6.7 μL of 3 mM stock of ATP giving a final concentration of 1 μM per well • 10 mL of ‘buffer’ • 2.5 mL of each PI3K construct are prepared per assay in ‘PI’ with the following final concentration: • 10 nM PI3K alfa BV-1075 • 25 nM beta BV-949 • 10 nM delta BV-1060 • 150 nM gamma BV-950 • 5 μL of ‘PI/PI3K’ are added per well. • 5 μl ‘ATP’ are added per well to start the reaction. • The plates are then incubated at room temperature for 60 minutes (alfa, beta, delta) or 120 minutes (gamma). • The reaction is terminated by the addition of 10 μL Kinase-Glo (Promega Cat. No. #6714). • The assay plates are read after 10 minutes in Synergy 2 reader (BioTek, Vermont USA) with an integration time of 100 milliseconds and sensitivity set to 191. • Output: The High control is around 60′000 counts and the Low control is 30′000 or lower • This luminescence assay gives a useful Z′ ratio between 0.4 and 0.7 The Z′ value is a universal measurement of the robustness of an assay. A Z′ between 0.5 and 1.0 is considered an excellent assay.
PI3Kβ BV-949 p85(iSH2)-Gly linker-p110b (Full-Length)-C-Term His Tag
(§4) IC50 is determined by a four parameter curve fitting routine that comes aloneg with “excel fit”. A 4 Parameter logistic equation is used to calculate IC50 values (IDBS XLfit) of the percentage inhibition of each compound at 8 concentrations (usually 10, 3.0, 1.0, 0.3, 0.1, 0.030, 0.010 and 0.003 μM). Alternatively, IC50 values are calculated using idbsXLfit model 204, which is a 4 parameter logistic model.
In general terms: Kinase-Glo measures the ATP left after a reaction by luminescence.

The target in another assay is T2, PI3K alfa (Homo sapiens, UniProt P42336).
T2 construct: p85(iSH2) fusion partner (same polypeptide; see partner chain) (N); 12x Gly linker (N); His tag (C); made in house; host or cells: baculovirus; Tn5 (Trichoplusia ni) or TiniPro insect cells
T2 sequence (P42336 with tags, fused parts or gaps limits assumed): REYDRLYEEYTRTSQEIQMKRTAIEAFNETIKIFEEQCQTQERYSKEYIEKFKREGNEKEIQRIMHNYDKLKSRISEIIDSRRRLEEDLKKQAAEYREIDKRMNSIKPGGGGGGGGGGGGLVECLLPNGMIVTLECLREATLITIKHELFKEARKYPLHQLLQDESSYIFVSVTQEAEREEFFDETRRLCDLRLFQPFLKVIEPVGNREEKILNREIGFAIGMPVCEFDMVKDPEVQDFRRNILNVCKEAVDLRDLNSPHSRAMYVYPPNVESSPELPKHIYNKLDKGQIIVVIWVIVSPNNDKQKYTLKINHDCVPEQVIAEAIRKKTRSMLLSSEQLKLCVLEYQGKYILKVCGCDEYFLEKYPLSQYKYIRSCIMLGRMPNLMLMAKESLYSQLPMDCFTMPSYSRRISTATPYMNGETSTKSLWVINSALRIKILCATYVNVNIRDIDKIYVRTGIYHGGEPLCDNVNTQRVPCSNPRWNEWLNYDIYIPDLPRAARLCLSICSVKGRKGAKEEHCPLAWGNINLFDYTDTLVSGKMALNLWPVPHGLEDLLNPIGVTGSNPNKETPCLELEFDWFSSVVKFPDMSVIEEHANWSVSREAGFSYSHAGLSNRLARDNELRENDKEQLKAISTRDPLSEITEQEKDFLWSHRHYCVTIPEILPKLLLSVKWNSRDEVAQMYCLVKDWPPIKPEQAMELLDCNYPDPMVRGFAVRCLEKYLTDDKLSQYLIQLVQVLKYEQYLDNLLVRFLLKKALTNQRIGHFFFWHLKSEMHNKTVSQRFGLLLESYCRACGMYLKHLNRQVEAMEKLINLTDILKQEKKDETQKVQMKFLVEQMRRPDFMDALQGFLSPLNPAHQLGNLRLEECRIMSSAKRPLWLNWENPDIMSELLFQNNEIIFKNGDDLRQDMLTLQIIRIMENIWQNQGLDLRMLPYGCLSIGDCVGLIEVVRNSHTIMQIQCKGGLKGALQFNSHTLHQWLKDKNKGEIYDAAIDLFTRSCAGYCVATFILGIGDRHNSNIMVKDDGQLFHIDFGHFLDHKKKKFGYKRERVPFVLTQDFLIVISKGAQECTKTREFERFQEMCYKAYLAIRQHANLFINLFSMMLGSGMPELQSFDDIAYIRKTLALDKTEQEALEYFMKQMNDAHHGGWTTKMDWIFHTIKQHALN
Nature of the assay: PI3K alfa enzymatic assay (Kinase-Glo luminescence). The protocol:
as §1, §2, §3, §4

In a further assay the target is T3, PI3K gamma (Homo sapiens, UniProt P48736).
T3 construct: His tag (C); made in house; host or cells: construct from Roger Williams lab (MRC LMB); baculovirus (pVL1393); Tn5 (Trichoplusia ni) or TiniPro insect cells
T3 sequence (P48736 144-1102 limits assumed): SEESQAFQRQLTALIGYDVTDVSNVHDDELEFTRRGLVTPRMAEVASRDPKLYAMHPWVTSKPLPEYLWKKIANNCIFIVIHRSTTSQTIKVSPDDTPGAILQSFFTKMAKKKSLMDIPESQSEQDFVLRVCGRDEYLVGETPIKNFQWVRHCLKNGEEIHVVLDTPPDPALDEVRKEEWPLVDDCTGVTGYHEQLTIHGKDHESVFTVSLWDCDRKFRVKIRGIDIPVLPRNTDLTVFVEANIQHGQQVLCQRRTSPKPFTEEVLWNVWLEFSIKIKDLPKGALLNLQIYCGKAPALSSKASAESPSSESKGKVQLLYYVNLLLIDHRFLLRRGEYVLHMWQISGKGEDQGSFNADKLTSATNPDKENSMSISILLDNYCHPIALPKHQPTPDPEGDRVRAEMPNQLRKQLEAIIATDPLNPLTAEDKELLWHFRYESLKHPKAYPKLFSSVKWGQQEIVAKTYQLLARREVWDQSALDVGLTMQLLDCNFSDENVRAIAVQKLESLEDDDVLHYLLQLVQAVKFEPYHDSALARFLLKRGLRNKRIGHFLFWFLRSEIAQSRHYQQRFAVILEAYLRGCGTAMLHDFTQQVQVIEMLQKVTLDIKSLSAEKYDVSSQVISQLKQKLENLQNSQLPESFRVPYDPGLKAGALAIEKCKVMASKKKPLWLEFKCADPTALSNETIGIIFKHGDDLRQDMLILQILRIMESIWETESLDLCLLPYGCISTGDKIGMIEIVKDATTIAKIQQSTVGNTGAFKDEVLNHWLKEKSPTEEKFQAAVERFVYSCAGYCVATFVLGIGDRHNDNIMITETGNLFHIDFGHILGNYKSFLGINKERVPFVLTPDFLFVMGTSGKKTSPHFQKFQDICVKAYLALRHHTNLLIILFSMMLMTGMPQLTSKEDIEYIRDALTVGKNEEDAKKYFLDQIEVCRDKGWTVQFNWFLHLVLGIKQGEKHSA
As to the kind of experiment: PI3K gamma enzymatic assay (Kinase-Glo luminescence). The protocol: as §1, §2, §3, §4

The target in the next assay is T4, PI3K delta (Homo sapiens, UniProt O00329).
T4 construct: for the full-length p110-d subunit are generated and fused by overlapping PCR; p85(iSH2) fusion partner (same polypeptide; see partner chain) (N); Gly linker (N); His tag (C); made in house; host or cells: baculovirus; Tn5 (Trichoplusia ni) or TiniPro insect cells
T4 sequence (O00329 with tags, fused parts or gaps limits assumed): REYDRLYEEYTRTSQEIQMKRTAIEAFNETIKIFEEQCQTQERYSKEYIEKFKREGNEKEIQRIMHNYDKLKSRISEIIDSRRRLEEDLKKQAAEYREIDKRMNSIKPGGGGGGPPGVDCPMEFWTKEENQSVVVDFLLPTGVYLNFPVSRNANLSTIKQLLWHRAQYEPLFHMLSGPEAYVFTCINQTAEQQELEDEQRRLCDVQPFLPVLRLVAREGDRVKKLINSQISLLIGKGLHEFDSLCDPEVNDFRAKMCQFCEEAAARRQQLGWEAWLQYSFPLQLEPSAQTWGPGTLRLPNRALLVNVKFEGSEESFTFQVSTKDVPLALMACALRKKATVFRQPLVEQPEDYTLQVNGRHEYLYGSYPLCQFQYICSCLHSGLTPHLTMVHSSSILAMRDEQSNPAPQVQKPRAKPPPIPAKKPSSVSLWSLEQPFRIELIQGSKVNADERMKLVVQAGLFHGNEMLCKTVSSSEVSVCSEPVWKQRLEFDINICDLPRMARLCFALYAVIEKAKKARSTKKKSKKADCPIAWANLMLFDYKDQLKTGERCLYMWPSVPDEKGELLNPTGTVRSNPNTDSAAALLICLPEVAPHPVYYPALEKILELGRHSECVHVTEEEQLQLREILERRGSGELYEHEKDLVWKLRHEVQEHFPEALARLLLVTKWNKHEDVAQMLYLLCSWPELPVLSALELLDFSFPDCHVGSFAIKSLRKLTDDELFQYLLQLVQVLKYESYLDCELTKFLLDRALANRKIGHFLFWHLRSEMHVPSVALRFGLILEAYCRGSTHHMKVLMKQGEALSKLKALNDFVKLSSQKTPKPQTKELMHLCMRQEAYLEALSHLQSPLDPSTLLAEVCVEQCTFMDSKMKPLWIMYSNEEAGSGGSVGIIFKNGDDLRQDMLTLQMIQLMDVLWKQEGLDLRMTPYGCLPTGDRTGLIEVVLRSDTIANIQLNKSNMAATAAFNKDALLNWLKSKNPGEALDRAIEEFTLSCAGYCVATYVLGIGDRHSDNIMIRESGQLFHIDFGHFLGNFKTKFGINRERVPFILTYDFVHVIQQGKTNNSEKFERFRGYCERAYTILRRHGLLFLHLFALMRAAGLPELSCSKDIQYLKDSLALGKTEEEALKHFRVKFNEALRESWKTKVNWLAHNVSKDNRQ
Nature of the assay: PI3K delta enzymatic assay (Kinase-Glo luminescence). The procedure: as §1, §2, §3
PI3Kδ BV-1060 p85(iSH2)-Gly Linker-p110d (Full-Length)-C-term His Tact
as §4

T1 sequence (P42338 with tags, fused parts or gaps limits assumed): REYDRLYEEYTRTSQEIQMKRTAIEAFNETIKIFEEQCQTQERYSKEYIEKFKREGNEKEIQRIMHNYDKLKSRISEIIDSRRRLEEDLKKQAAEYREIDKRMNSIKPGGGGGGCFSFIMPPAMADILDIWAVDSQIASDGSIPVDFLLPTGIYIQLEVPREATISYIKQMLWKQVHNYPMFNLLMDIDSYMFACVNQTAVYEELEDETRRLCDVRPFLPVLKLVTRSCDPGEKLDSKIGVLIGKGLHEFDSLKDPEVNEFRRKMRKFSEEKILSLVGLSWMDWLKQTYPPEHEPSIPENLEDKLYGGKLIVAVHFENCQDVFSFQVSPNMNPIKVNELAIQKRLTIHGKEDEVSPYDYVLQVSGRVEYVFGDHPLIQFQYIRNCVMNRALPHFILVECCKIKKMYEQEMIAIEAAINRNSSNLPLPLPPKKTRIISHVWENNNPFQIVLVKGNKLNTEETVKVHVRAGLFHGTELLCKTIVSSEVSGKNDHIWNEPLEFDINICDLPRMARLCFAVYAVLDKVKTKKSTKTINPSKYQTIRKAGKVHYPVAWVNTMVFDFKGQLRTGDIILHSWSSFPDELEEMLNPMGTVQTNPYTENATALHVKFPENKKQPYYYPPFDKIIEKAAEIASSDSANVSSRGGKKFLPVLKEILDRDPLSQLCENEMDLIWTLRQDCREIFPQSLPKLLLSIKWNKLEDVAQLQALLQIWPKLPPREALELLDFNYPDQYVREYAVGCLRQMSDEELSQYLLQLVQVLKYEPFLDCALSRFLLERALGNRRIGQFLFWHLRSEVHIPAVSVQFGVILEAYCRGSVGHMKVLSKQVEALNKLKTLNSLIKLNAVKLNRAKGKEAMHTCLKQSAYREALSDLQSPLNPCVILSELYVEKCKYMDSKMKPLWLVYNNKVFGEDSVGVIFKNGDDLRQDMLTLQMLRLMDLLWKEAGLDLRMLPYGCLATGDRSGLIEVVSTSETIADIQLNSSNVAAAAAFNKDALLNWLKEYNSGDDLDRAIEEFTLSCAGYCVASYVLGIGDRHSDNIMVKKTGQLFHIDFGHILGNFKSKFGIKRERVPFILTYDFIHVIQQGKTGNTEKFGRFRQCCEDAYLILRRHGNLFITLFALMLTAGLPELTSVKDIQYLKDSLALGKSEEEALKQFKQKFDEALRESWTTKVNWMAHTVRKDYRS

On to `COCCOCCOCCOc1ccc(-c2ccc3nc(C)c(-c4ccc(S(C)(=O)=O)cc4)n3n2)cc1OC` [Example 90, 3-(4-Methanesulfonyl-phenyl)-6-(3-methoxy-4-{2-[2-(2-methoxy-ethoxy)-ethoxy]-ethoxy}-phenyl)-2-methyl-imidazo[1,2-b]pyridazine], for which the IC50 (as a rule, the concentration that gives 50% inhibition) at PI3K beta is greater than 9100 nM; on PI3K alfa it was 2360 nM; on PI3K gamma it was 3460 nM; at PI3K delta it was 1740 nM.
On the same counts, the results for `COc1cc(-c2ccc3nc(C)c(-c4cnc(N)c(C(F)(F)F)c4)n3n2)ccc1OCCN` [Example 24, 5-{6-[4-(2-Amino-ethoxy)-3-methoxy-phenyl]-2-methyl-imidazo[1,2-b]pyridazin-3-yl}-3-trifluoromethyl-pyridin-2-ylamine] are 51 nM, 39 nM, 211 nM and 52 nM.
On the same counts, the results for `COc1cc(-c2ccc3nc(C)c(-c4cnc(N)c(C(F)(F)F)c4)n3n2)ccc1OCCNC(=O)C(C)C` [Example 81] are greater than 9100 nM, 30 nM, 503 nM and 372 nM.
On the same counts, the results for `COc1ccc(-c2ccc3nc(C)c(-c4cnc(N)c(C(F)(F)F)c4)n3n2)cc1OCCCNC(=O)c1ccncc1` [Example 97, N-(3-{5-[3-(6-Amino-5-trifluoromethyl-pyridin-3-yl)-2-methyl-imidazo[1,2-b]pyridazin-6-yl]-2-methoxy-phenoxy}-propyl)-isonicotinamide] are greater than 9100 nM, 118 nM, 1330 nM and 966 nM.
As to `CCS(=O)(=O)c1ccc(-c2c(C)nc3ccc(-c4ccc(OC5CCN(C(=O)OC(C)(C)C)CC5)c(OC)c4)nn23)cc1` [Example 99, 4-{4-[3-(4-Ethanesulfonyl-phenyl)-2-methyl-imidazo[1,2-b]pyridazin-6-yl]-2-methoxy-phenoxy}-piperidine-1-carboxylic acid tert-butyl ester], the IC50 on PI3K beta, at PI3K alfa, at PI3K gamma and on PI3K delta was greater than 9100 nM each time.
Take `COc1cccc(NC(=O)NCCOc2ccc(-c3ccc4nc(C)c(-c5cnc(N)c(C(F)(F)F)c5)n4n3)cc2OC)c1` [Example 59]: the IC50 at PI3K beta is greater than 9100 nM; on PI3K alfa, 371 nM; on PI3K gamma it was 2640 nM; at PI3K delta it was greater than 9100 nM.
For the compound `COc1cc(-c2ccc3nc(C)c(-c4cnc(N)c(C(F)(F)F)c4)n3n2)ccc1OCCNC(=O)OC(C)C` [Example 79], the IC50 at PI3K beta was greater than 9100 nM; at PI3K alfa, 99 nM; on PI3K gamma it was 648 nM; at PI3K delta it was 2040 nM.
With `COc1cc(-c2ccc3nc(C)c(-c4cnc(N)c(C(F)(F)F)c4)n3n2)ccc1OCCNC(=O)Nc1cccnc1` [Example 51], the IC50 on PI3K beta is greater than 9100 nM; on PI3K alfa, 28 nM; on PI3K gamma, 2520 nM; at PI3K delta, 1660 nM.
The matching figures for `CCS(=O)(=O)c1ccc(-c2c(C)nc3ccc(-c4ccc(OC5CCNCC5)c(OC)c4)nn23)cc1` [Example 102, 3-(4-Ethanesulfonyl-phenyl)-6-[3-methoxy-4-(piperidin-4-yloxy)-phenyl]-2-methyl-imidazo[1,2-b]pyridazine]: greater than 9100 nM, 2990 nM, greater than 9100 nM and 2560 nM.
On the same counts, the results for `COc1cc(-c2ccc3nc(C)c(-c4cnc(N)c(C(F)(F)F)c4)n3n2)ccc1OCCCNC(=O)C(F)(F)F` [Example 85, N-(3-{4-[3-(6-Amino-5-trifluoromethyl-pyridin-3-yl)-2-methyl-imidazo[1,2-b]pyridazin-6-yl]-2-methoxy-phenoxy}-propyl)-2,2,2-trifluoro-acetamide] are greater than 9100 nM, 244 nM, 2590 nM and 3490 nM.
For the compound `COc1ccc(-c2ccc3nc(C)c(-c4ccc(N5CCOCC5)nc4)n3n2)cc1OC` [Example 5], the IC50 is 1570 nM on PI3K beta, 111 nM at PI3K alfa, 613 nM at PI3K gamma and 1090 nM on PI3K delta.
As to `COc1cc(-c2ccc3nc(C)c(-c4cnc(N)c(C(F)(F)F)c4)n3n2)ccc1OCCCNC(=O)C(C)C` [Example 82], the IC50 on PI3K beta is 4010 nM; on PI3K alfa it was 19 nM; at PI3K gamma it was 87 nM; on PI3K delta it was 164 nM.
On the same counts, the results for `COc1cc(-c2ccc3nc(C)c(-c4cnc(N)c(C(F)(F)F)c4)n3n2)ccc1OCCNC(=O)c1cccnc1` [Example 31] are greater than 9100 nM, 38 nM, 4320 nM and 748 nM.
On to `Cc1nc2ccc(-c3ccc(S(C)(=O)=O)cc3)nn2c1-c1cncc(C#N)c1` [Example 19, 5-[6-(4-Methanesulfonyl-phenyl)-2-methyl-imidazo[1,2-b]pyridazin-3-yl]-nicotinonitrile], for which the 50% inhibitory concentration (IC50) on PI3K beta came to 12300 nM; on PI3K alfa, 1290 nM; at PI3K gamma it was 5180 nM; on PI3K delta, 5500 nM.
Turning to `COc1ccc(-c2ccc3nc(C)c(-c4ccc(N5CCNCC5)nc4)n3n2)cc1OC` [Example 11, 6-(3,4-Dimethoxy-phenyl)-2-methyl-3-(6-piperazin-1-yl-pyridin-3-yl)-imidazo[1,2-b]pyridazine], the IC50 on PI3K beta was 613 nM; at PI3K alfa, 110 nM; at PI3K gamma, 536 nM; on PI3K delta, 2390 nM.
The matching figures for `Cc1nc2ccc(-c3ccc(OCC4(NC(=O)OC(C)(C)C)COC4)cc3)nn2c1-c1cnc(N)c(C(F)(F)F)c1` [Example 113, (3-{4-[3-(6-Amino-5-trifluoromethyl-pyridin-3-yl)-2-methyl-imidazo[1,2-b]pyridazin-6-yl]-phenoxymethyl}-oxetan-3-yl)-carbamic acid tert-butyl ester]: greater than 9100 nM, 1010 nM, greater than 9100 nM and 5110 nM.
The matching figures for `COc1ccc(-c2ccc3nc(C)c(-c4cc[nH]n4)n3n2)cc1OC` [Example 20, 6-(3,4-Dimethoxy-phenyl)-2-methyl-3-(1H-pyrazol-3-yl)-imidazo[1,2-b]pyridazine]: 3240 nM, 220 nM, 358 nM and 1390 nM.
On the same counts, the results for `CCS(=O)(=O)c1ccc(-c2c(C)nc3ccc(-c4ccc(OCCOCCOCCOC)c(OC)c4)nn23)cc1` [Example 91, 3-(4-Ethanesulfonyl-phenyl)-6-(3-methoxy-4-{2-[2-(2-methoxy-ethoxy)-ethoxy]-ethoxy}-phenyl)-2-methyl-imidazo[1,2-b]pyridazine] are greater than 9100 nM, 4100 nM, greater than 9100 nM and 3400 nM.
